{"source": "paper PMC9151520", "about": "(Archives of Toxicology, 2022)", "key": {"[1]": {"tested_on": "p53 signaling (p53RE-bla HCT-116 cells)", "experiment": "cells", "conditions": "Homo sapiens; for Emax: HCT-116, read-out: p53 activation efficacy, primary screening"}, "[2]": {"tested_on": "p53RE-bla HCT-116 cells"}, "[3]": {"tested_on": "p53 signaling (p53RE-bla HCT-116 cells)"}, "[4]": {"tested_on": "p53 signaling (p53RE-bla HCT-116 cells)", "remark": "listed apart in the source"}, "[5]": {"tested_on": "p53 signaling (p53RE-bla HCT-116 cells)", "experiment": "cells", "assay_type": "cell-based", "conditions": "for EC50 / Emax: Homo sapiens"}, "[6]": {"conditions": "HCT-116, read-out: p53 activation EC50, primary screening"}, "[7]": {"conditions": "HCT-116, read-out: EC50, p53 activation, primary screening"}, "[8]": {"conditions": "HCT-116, read-out: EC50, p53 activation, cherry pick confirmation"}, "[9]": {"conditions": "HCT-116, read-out: Efficacy, p53 activation, cherry pick confirmation"}}, "note": "Like-named read-outs stand apart in the source and are kept apart here.", "data": [{"smiles": "O=C1OC(O)C(Cl)=C1Cl", "note": "(centres unmarked) [Mucochloric acid]", "values": [{"measurement": "EC50", "setting": "[1]; [6]", "value": 49.4, "unit": "µM"}, {"measurement": "Emax", "setting": "[1]", "value": 51.8, "unit": "%"}, {"measurement": "Viability EC50, cherry pick confirmation", "setting": "[2]", "value": "inactive"}, {"measurement": "Viability EC50, primary screening", "setting": "[2]", "value": "inactive"}, {"measurement": "Viability efficacy, cherry pick confirmation", "setting": "[2]", "value": "inactive"}, {"measurement": "Viability efficacy, primary screening", "setting": "[2]", "value": "inactive"}, {"measurement": "p53 activation EC50, cherry pick confirmation", "setting": "[3]", "value": "inactive"}, {"measurement": "p53 activation efficacy, cherry pick confirmation", "setting": "[3]", "value": "inactive"}, {"measurement": "p53 activation EC50, cherry pick confirmation", "setting": "[4]", "value": "inactive"}, {"measurement": "p53 activation EC50, primary screening", "setting": "[4]", "value": "inactive"}, {"measurement": "p53 activation efficacy, cherry pick confirmation", "setting": "[4]", "value": "inactive"}, {"measurement": "p53 activation efficacy, primary screening", "setting": "[4]", "value": "inactive"}, {"measurement": "p53 activation EC50, primary screening", "setting": "[5]", "value": "inactive"}, {"measurement": "p53 activation efficacy, primary screening", "setting": "[5]", "value": "inactive"}, {"measurement": "EC50", "setting": "[5]; HCT-116, read-out: p53 activation EC50, cherry pick confirmation", "value": 15.9, "unit": "µM"}, {"measurement": "Emax", "setting": "[5]; HCT-116, read-out: p53 activation efficacy, cherry pick confirmation", "value": 180, "unit": "%"}]}, {"smiles": "c1ccc2c(c1)-c1cccc3cccc-2c13", "note": "[Fluoranthene]", "values": [{"measurement": "EC50", "setting": "[1]; [6]", "value": 24.4, "unit": "µM"}, {"measurement": "Emax", "setting": "[1]", "value": 33.6, "unit": "%"}, {"measurement": "Viability EC50, cherry pick confirmation", "setting": "[2]", "value": "inactive"}, {"measurement": "Viability EC50, primary screening", "setting": "[2]", "value": "inactive"}, {"measurement": "Viability efficacy, cherry pick confirmation", "setting": "[2]", "value": "inactive"}, {"measurement": "Viability efficacy, primary screening", "setting": "[2]", "value": "inactive"}, {"measurement": "p53 activation EC50, cherry pick confirmation", "setting": "[3]", "value": "inactive"}, {"measurement": "p53 activation efficacy, cherry pick confirmation", "setting": "[3]", "value": "inactive"}, {"measurement": "p53 activation EC50, cherry pick confirmation", "setting": "[4]", "value": "inactive"}, {"measurement": "p53 activation EC50, primary screening", "setting": "[4]", "value": "inactive"}, {"measurement": "p53 activation efficacy, cherry pick confirmation", "setting": "[4]", "value": "inactive"}, {"measurement": "p53 activation efficacy, primary screening", "setting": "[4]", "value": "inactive"}, {"measurement": "p53 activation EC50, cherry pick confirmation", "setting": "[5]", "value": "inactive"}, {"measurement": "p53 activation EC50, primary screening", "setting": "[5]", "value": "inactive"}, {"measurement": "p53 activation efficacy, cherry pick confirmation", "setting": "[5]", "value": "inactive"}, {"measurement": "p53 activation efficacy, primary screening", "setting": "[5]", "value": "inactive"}]}, {"smiles": "O=c1[nH]c(=O)n([C@H]2C[C@H](O)[C@@H](CO)O2)cc1F", "note": "[Floxuridine]", "values": [{"measurement": "EC50", "setting": "[1]; [7]", "value": 0.326, "unit": "µM"}, {"measurement": "EC50, viability, cherry pick confirmation", "setting": "[2]", "value": "inactive"}, {"measurement": "EC50, viability, primary screening", "setting": "[2]", "value": "inactive"}, {"measurement": "Efficacy, viability, cherry pick confirmation", "setting": "[2]", "value": "inactive"}, {"measurement": "Efficacy, viability, primary screening", "setting": "[2]", "value": "inactive"}, {"measurement": "EC50, p53 activation, cherry pick confirmation", "setting": "[3]", "value": "inactive"}, {"measurement": "Efficacy, p53 activation, cherry pick confirmation", "setting": "[3]", "value": "inactive"}, {"measurement": "EC50, p53 activation, cherry pick confirmation", "setting": "[4]", "value": "inactive"}, {"measurement": "EC50, p53 activation, primary screening", "setting": "[4]", "value": "inactive"}, {"measurement": "Efficacy, p53 activation, cherry pick confirmation", "setting": "[4]", "value": "inactive"}, {"measurement": "Efficacy, p53 activation, primary screening", "setting": "[4]", "value": "inactive"}, {"measurement": "EC50", "setting": "[5]; [8]", "value": 15.7, "unit": "µM"}, {"measurement": "EC50", "setting": "[5]; [7]", "value": 0.643, "unit": "µM"}, {"measurement": "Emax", "setting": "[5]; [9]", "value": 59.4, "unit": "%"}]}, {"smiles": "CCCCCCNC(=O)n1cc(F)c(=O)[nH]c1=O", "note": "[Carmofur]", "values": [{"measurement": "EC50", "setting": "[1]; [7]", "value": 2.11, "unit": "µM"}, {"measurement": "EC50, viability, cherry pick confirmation", "setting": "[2]", "value": "inactive"}, {"measurement": "EC50, viability, primary screening", "setting": "[2]", "value": "inactive"}, {"measurement": "Efficacy, viability, cherry pick confirmation", "setting": "[2]", "value": "inactive"}, {"measurement": "Efficacy, viability, primary screening", "setting": "[2]", "value": "inactive"}, {"measurement": "EC50, p53 activation, cherry pick confirmation", "setting": "[3]", "value": "inactive"}, {"measurement": "Efficacy, p53 activation, cherry pick confirmation", "setting": "[3]", "value": "inactive"}, {"measurement": "EC50, p53 activation, cherry pick confirmation", "setting": "[4]", "value": "inactive"}, {"measurement": "EC50, p53 activation, primary screening", "setting": "[4]", "value": "inactive"}, {"measurement": "Efficacy, p53 activation, cherry pick confirmation", "setting": "[4]", "value": "inactive"}, {"measurement": "Efficacy, p53 activation, primary screening", "setting": "[4]", "value": "inactive"}, {"measurement": "EC50", "setting": "[5]; [8]", "value": 17.8, "unit": "µM"}, {"measurement": "EC50", "setting": "[5]; [7]", "value": 2.97, "unit": "µM"}, {"measurement": "Emax", "setting": "[5]; [9]", "value": 121, "unit": "%"}]}, {"smiles": "c1cc2ccc3cccc4ccc(c1)c2c34", "note": "[Pyrene]", "values": [{"measurement": "EC50", "setting": "[1]; [6]", "value": 21.7, "unit": "µM"}, {"measurement": "Emax", "setting": "[1]", "value": 51.6, "unit": "%"}, {"measurement": "Viability EC50, cherry pick confirmation", "setting": "[2]", "value": "inactive"}, {"measurement": "Viability EC50, primary screening", "setting": "[2]", "value": "inactive"}, {"measurement": "Viability efficacy, cherry pick confirmation", "setting": "[2]", "value": "inactive"}, {"measurement": "Viability efficacy, primary screening", "setting": "[2]", "value": "inactive"}, {"measurement": "p53 activation EC50, cherry pick confirmation", "setting": "[3]", "value": "inactive"}, {"measurement": "p53 activation efficacy, cherry pick confirmation", "setting": "[3]", "value": "inactive"}, {"measurement": "p53 activation EC50, cherry pick confirmation", "setting": "[4]", "value": "inactive"}, {"measurement": "p53 activation EC50, primary screening", "setting": "[4]", "value": "inactive"}, {"measurement": "p53 activation efficacy, cherry pick confirmation", "setting": "[4]", "value": "inactive"}, {"measurement": "p53 activation efficacy, primary screening", "setting": "[4]", "value": "inactive"}, {"measurement": "p53 activation EC50, cherry pick confirmation", "setting": "[5]", "value": "inactive"}, {"measurement": "p53 activation EC50, primary screening", "setting": "[5]", "value": "inactive"}, {"measurement": "p53 activation efficacy, cherry pick confirmation", "setting": "[5]", "value": "inactive"}, {"measurement": "p53 activation efficacy, primary screening", "setting": "[5]", "value": "inactive"}]}, {"smiles": "O=P(OCC(Br)CBr)(OCC(Br)CBr)OCC(Br)CBr", "note": "(centres unmarked) [Tris(2,3-dibromopropyl) phosphate]", "values": [{"measurement": "EC50", "setting": "[1]; [6]", "value": 46.6, "unit": "µM"}, {"measurement": "Emax", "setting": "[1]", "value": 38.9, "unit": "%"}, {"measurement": "Viability EC50, cherry pick confirmation", "setting": "[2]", "value": "inactive"}, {"measurement": "Viability EC50, primary screening", "setting": "[2]", "value": "inactive"}, {"measurement": "Viability efficacy, cherry pick confirmation", "setting": "[2]", "value": "inactive"}, {"measurement": "Viability efficacy, primary screening", "setting": "[2]", "value": "inactive"}, {"measurement": "p53 activation EC50, cherry pick confirmation", "setting": "[3]", "value": "inactive"}, {"measurement": "p53 activation efficacy, cherry pick confirmation", "setting": "[3]", "value": "inactive"}, {"measurement": "p53 activation EC50, cherry pick confirmation", "setting": "[4]", "value": "inactive"}, {"measurement": "p53 activation EC50, primary screening", "setting": "[4]", "value": "inactive"}, {"measurement": "p53 activation efficacy, cherry pick confirmation", "setting": "[4]", "value": "inactive"}, {"measurement": "p53 activation efficacy, primary screening", "setting": "[4]", "value": "inactive"}, {"measurement": "p53 activation EC50, cherry pick confirmation", "setting": "[5]", "value": "inactive"}, {"measurement": "p53 activation EC50, primary screening", "setting": "[5]", "value": "inactive"}, {"measurement": "p53 activation efficacy, cherry pick confirmation", "setting": "[5]", "value": "inactive"}, {"measurement": "p53 activation efficacy, primary screening", "setting": "[5]", "value": "inactive"}]}]}
